According to publication PMC9719892, “Control of parallelized bioreactors II: probabilistic quantification of carboxylic acid reductase activity for bioprocess optimization” (Bioprocess and Biosystems Engineering, 2022):

Molecular target: T1, NoCAR (Nocardia otitidiscaviarum, UniProt A0A378YSF8)
T1 construct: gene lgrD_6; pETDuet, T7 promoter, co-expressed with E. coli pyrophosphatase (EcPPase, no chain) in E. coli K12 MG1655 RARE; whole cells; CAR class approx. 130 kDa
T1 sequence (A0A378YSF8 1-1156): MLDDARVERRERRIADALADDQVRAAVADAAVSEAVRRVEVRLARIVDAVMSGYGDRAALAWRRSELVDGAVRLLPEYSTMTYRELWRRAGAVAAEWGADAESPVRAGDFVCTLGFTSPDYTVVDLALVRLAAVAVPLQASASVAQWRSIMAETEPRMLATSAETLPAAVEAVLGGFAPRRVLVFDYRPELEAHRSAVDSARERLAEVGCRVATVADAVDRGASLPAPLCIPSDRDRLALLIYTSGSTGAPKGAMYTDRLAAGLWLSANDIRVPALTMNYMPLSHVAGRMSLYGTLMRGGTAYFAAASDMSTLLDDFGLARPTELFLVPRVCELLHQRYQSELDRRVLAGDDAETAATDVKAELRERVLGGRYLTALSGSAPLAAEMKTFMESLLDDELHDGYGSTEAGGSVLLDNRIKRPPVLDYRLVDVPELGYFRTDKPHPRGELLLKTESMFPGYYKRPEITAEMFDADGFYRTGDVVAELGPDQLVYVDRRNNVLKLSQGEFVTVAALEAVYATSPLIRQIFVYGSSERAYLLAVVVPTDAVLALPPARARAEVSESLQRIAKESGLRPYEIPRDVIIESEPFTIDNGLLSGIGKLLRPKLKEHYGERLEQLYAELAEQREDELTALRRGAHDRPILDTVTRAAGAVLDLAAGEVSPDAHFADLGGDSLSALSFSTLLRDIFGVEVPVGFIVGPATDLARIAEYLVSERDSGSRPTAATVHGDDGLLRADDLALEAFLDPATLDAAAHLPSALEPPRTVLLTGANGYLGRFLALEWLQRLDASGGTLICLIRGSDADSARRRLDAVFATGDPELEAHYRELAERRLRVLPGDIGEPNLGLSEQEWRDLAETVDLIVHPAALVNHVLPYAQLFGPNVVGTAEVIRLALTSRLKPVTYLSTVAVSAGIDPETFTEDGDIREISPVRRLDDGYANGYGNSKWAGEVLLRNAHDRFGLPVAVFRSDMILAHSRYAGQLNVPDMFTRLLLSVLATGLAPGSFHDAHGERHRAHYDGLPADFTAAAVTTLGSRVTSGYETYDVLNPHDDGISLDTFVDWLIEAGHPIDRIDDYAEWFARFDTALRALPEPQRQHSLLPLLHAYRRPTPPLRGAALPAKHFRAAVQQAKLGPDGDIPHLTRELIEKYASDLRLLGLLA
Test: whole-cell biotransformation, ABAO assay of 3-hydroxybenzaldehyde at […] nm
Format: cell-based
Details: 2.5 mM substrate in PBS / minimal medium with glucose, growing E. coli cells, 35 °C; no added cofactor

SMILES: O=C(O)c1cccc(O)c1 [3-hydroxybenzoic acid]
- whole-cell biotransformation, ABAO assay of 3-hydroxybenzaldehyde at 360 nm: The biotransformation consists of the conversion of 3-hydroxybenzoic acid to 3-hydroxybenzaldehyde
